Laboratory results: ChEMBL document CHEMBL4507259 (2021)

Tests used:
[1] = target: Casein kinase I isoform gamma-1 (Homo sapiens) (UniProt Q9HCP0); conditions: Compound concentration 1000.0 nM
[2] = target: Casein kinase II subunit alpha' (Homo sapiens) (UniProt P19784); conditions: Compound concentration 1000.0 nM
[3] = target: Cyclin-dependent kinase 19 (Homo sapiens) (UniProt Q9BWU1); conditions: Compound concentration 1000.0 nM
[4] = target: Mu-type opioid receptor (Homo sapiens) (UniProt P35372); experiment: mu (MOP) (h) CEREP ligand profiling; conditions: filed as agonist, Compound concentration 10.0 uM
[5] = target: T1, Muscarinic acetylcholine receptor M2 (Homo sapiens) (UniProt P08172); conditions: Compound concentration 10.0 uM
T1 sequence (whole entry): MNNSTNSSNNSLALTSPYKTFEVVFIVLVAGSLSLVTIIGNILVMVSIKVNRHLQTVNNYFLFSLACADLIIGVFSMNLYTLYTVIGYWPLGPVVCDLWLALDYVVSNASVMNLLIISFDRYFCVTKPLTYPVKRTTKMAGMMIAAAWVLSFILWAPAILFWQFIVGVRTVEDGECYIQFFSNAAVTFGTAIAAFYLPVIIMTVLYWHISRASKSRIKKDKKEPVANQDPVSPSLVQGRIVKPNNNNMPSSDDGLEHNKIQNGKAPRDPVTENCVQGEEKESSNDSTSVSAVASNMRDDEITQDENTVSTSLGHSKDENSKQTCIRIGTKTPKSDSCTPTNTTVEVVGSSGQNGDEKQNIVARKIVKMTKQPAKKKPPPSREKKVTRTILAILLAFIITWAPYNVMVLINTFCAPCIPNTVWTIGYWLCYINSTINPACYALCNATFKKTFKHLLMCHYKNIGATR

[6] = target: 3-phosphoinositide-dependent protein kinase 1 (Homo sapiens) (UniProt O15530); conditions: Compound concentration 1000.0 nM
Sequence of 3-phosphoinositide-dependent protein kinase 1 (Homo sapiens) (O15530 whole entry): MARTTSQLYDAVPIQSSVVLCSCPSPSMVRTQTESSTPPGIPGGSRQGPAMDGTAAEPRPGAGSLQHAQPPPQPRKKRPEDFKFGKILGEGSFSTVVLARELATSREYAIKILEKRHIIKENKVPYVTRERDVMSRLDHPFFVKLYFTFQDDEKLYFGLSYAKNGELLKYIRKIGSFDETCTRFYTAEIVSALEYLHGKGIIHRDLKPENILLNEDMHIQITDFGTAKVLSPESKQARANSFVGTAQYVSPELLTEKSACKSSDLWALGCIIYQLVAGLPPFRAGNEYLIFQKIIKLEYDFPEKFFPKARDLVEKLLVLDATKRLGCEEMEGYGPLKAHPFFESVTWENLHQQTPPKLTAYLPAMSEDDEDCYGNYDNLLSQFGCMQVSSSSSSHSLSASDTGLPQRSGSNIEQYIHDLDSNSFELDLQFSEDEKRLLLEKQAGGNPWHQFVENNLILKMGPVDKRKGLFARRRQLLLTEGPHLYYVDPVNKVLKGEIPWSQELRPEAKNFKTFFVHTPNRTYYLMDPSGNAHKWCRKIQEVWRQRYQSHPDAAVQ

[7] = target: Macrophage colony-stimulating factor 1 receptor (Homo sapiens) (UniProt P07333); conditions: Compound concentration 1000.0 nM
Sequence of Macrophage colony-stimulating factor 1 receptor (Homo sapiens) (P07333 whole entry): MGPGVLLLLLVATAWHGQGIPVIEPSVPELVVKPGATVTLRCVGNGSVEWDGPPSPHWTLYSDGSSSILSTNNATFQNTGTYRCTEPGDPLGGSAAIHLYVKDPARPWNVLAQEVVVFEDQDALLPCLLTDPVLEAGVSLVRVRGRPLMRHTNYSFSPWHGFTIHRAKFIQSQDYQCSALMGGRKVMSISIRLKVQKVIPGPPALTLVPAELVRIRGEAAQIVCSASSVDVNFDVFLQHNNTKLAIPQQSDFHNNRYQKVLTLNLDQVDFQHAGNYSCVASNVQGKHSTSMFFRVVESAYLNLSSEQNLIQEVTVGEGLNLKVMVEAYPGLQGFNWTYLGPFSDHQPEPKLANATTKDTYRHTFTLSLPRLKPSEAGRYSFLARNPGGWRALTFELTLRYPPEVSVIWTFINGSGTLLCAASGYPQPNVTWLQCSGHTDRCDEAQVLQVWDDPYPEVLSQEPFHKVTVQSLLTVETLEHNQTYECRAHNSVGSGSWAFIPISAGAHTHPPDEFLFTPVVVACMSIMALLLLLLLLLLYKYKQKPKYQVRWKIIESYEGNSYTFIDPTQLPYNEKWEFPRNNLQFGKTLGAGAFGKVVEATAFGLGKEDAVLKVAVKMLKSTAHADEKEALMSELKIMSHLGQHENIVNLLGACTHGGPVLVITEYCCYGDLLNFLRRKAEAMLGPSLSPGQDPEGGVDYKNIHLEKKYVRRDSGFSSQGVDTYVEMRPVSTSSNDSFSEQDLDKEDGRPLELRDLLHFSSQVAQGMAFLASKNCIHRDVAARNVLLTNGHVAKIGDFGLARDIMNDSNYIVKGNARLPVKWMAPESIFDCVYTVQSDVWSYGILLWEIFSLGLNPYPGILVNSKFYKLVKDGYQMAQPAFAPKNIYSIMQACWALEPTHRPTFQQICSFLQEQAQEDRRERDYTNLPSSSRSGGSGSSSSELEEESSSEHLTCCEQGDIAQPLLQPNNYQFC

[8] = target: Phosphatidylinositol 5-phosphate 4-kinase type-2 beta (Homo sapiens) (UniProt P78356); conditions: Compound concentration 1000.0 nM
[9] = target: Ephrin type-A receptor 2 (Homo sapiens) (UniProt P29317); conditions: Compound concentration 1000.0 nM
[10] = target: Platelet-derived growth factor receptor beta (Homo sapiens) (UniProt P09619); conditions: Compound concentration 1000.0 nM
[11] = target: Sigma non-opioid intracellular receptor 1 (Homo sapiens) (UniProt Q99720); experiment: sigma (non-selective) (h) CEREP ligand profiling; conditions: filed as agonist, Compound concentration 10.0 uM
[12] = test system: Mast/stem cell growth factor receptor Kit (Homo sapiens), P10721 [V559D,V654A]; conditions: Compound concentration 1000.0 nM
[13] = target: Ribosomal protein S6 kinase alpha-2 (Homo sapiens) (UniProt Q15349); conditions: Compound concentration 1000.0 nM
[14] = target: Calcium/calmodulin-dependent protein kinase type 1 (Homo sapiens) (UniProt Q14012); conditions: Compound concentration 1000.0 nM
Sequence of Calcium/calmodulin-dependent protein kinase type 1 (Homo sapiens) (Q14012 whole entry, looked up, canonical isoform): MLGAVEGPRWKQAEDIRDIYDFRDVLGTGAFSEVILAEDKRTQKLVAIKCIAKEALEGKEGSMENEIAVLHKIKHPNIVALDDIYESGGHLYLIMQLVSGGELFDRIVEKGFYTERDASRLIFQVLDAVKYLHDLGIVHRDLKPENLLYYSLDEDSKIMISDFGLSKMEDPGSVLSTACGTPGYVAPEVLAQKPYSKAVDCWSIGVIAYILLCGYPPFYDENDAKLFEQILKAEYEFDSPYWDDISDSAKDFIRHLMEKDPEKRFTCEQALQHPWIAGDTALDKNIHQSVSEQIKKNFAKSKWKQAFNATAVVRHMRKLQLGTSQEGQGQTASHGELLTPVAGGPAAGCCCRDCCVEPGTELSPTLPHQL

[15] = target: Casein kinase I isoform gamma-3 (Homo sapiens) (UniProt Q9Y6M4); conditions: Compound concentration 1000.0 nM
[16] = target: Tyrosine-protein kinase receptor UFO (Homo sapiens) (UniProt P30530); conditions: Compound concentration 1000.0 nM
[17] = target: Tyrosine-protein kinase Mer (Homo sapiens) (UniProt Q12866); conditions: Compound concentration 1000.0 nM
[18] = target: Tyrosine-protein kinase ZAP-70 (Homo sapiens) (UniProt P43403); conditions: Compound concentration 1000.0 nM
[19] = target: Mast/stem cell growth factor receptor Kit (Homo sapiens) (UniProt P10721); conditions: Compound concentration 1000.0 nM
[20] = target: Serine/threonine-protein kinase WNK3 (Homo sapiens) (UniProt Q9BYP7); conditions: Compound concentration 1000.0 nM
Sequence of Serine/threonine-protein kinase WNK3 (Homo sapiens) (Q9BYP7 whole entry): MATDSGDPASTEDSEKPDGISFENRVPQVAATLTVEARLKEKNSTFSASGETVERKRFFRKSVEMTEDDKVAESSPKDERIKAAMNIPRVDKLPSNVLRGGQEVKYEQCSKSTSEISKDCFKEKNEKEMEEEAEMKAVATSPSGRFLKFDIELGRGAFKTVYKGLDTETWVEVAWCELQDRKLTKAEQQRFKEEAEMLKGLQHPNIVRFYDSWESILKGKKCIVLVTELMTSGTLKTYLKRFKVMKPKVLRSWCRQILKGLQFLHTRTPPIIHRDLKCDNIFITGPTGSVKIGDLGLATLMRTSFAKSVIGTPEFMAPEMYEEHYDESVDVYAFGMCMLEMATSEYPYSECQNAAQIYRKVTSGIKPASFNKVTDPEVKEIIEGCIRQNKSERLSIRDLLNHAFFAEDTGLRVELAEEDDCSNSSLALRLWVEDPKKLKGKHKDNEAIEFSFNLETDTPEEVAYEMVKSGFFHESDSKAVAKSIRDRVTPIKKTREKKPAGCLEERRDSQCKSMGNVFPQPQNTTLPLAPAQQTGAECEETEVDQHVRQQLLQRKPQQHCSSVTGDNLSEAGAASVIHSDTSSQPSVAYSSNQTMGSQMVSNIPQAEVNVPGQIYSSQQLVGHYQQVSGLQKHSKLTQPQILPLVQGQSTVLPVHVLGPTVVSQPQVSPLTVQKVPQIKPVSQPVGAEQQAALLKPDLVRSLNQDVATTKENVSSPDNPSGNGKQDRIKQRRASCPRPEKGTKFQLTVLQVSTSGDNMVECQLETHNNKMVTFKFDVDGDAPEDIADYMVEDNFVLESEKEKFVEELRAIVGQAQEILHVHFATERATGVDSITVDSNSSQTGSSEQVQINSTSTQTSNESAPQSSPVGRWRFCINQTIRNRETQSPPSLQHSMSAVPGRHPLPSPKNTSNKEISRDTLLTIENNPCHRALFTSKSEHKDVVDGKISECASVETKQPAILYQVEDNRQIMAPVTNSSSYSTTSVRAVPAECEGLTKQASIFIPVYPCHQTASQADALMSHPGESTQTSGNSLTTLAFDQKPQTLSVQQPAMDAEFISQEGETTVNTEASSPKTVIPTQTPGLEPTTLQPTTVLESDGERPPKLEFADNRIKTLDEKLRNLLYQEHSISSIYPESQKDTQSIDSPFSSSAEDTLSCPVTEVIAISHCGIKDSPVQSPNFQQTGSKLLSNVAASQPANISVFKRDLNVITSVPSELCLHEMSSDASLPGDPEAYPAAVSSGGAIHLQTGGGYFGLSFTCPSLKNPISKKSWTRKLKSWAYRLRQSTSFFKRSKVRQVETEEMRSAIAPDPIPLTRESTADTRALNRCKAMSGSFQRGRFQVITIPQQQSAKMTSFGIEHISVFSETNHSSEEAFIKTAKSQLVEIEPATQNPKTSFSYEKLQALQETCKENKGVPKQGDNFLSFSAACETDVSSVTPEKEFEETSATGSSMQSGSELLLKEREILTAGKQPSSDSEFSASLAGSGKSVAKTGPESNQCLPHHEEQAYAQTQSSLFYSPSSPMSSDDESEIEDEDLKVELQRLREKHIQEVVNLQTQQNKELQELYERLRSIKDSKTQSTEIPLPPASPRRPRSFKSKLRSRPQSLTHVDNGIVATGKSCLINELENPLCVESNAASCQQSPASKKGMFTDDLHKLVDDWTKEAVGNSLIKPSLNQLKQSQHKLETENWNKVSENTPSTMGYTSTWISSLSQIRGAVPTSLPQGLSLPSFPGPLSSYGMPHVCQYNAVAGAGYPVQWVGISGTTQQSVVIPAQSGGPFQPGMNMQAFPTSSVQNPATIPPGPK

[21] = target: T2, 5-hydroxytryptamine receptor 3A (Homo sapiens) (UniProt P46098); experiment: 5-HT3 (h) CEREP ligand profiling; conditions: filed as antagonist, Compound concentration 10.0 uM
T2 sequence (whole entry): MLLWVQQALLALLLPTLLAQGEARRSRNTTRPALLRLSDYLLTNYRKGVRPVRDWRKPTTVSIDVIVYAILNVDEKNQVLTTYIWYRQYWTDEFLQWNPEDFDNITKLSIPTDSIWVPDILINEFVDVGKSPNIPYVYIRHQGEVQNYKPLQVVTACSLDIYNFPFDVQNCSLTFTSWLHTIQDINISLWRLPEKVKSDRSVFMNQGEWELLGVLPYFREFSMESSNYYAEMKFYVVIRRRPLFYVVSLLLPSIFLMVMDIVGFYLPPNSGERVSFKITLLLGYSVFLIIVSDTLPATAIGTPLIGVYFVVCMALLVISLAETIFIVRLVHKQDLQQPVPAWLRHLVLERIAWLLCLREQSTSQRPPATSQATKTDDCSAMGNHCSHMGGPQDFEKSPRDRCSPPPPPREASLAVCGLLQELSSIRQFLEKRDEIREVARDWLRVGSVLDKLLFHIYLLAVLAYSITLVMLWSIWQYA

[22] = target: Activated CDC42 kinase 1 (Homo sapiens) (UniProt Q07912); conditions: Compound concentration 1000.0 nM
[23] = test system: Mast/stem cell growth factor receptor Kit (Homo sapiens), P10721 [V559D]; conditions: Compound concentration 1000.0 nM
[24] = target: Testis-specific serine/threonine-protein kinase 3 (Homo sapiens) (UniProt Q96PN8); conditions: Compound concentration 1000.0 nM
[25] = target: Fibroblast growth factor receptor 1 (Homo sapiens) (UniProt P11362); conditions: Compound concentration 1000.0 nM
[26] = target: Tyrosine-protein kinase Fes/Fps (Homo sapiens) (UniProt P07332); conditions: Compound concentration 1000.0 nM
Sequence of Tyrosine-protein kinase Fes/Fps (Homo sapiens) (P07332 whole entry): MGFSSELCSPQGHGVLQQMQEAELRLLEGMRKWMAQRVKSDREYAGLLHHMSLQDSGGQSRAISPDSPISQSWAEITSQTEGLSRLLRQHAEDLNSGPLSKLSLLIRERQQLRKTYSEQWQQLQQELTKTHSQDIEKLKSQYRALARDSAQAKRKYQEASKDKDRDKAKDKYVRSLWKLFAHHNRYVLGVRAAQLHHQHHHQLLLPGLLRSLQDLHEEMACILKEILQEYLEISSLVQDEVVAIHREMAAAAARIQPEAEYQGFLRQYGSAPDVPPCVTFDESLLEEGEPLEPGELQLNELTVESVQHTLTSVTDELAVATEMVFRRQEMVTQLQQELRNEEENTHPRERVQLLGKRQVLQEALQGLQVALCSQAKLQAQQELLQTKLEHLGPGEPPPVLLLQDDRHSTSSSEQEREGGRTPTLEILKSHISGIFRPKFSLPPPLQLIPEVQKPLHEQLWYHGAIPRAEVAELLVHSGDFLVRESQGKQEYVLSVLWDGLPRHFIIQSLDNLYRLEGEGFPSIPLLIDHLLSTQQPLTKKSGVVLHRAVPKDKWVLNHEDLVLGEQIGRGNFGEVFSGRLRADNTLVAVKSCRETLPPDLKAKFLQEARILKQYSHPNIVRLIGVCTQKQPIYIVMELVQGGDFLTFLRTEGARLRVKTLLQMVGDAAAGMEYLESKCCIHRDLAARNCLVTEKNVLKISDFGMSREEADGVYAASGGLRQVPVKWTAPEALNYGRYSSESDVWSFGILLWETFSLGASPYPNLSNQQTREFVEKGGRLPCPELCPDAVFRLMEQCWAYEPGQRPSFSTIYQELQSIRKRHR

[27] = target: Ephrin type-A receptor 5 (Homo sapiens) (UniProt P54756); conditions: Compound concentration 1000.0 nM
[28] = test system: Tyrosine-protein kinase ABL1 (Homo sapiens), P00519 [Q252H]; conditions: Compound concentration 1000.0 nM
[29] = target: Activin receptor type-1B (Homo sapiens) (UniProt P36896); conditions: Compound concentration 1000.0 nM
[30] = target: Serine/threonine-protein kinase 32A (Homo sapiens) (UniProt Q8WU08); conditions: Compound concentration 1000.0 nM
[31] = target: D(2) dopamine receptor (Homo sapiens) (UniProt P14416); conditions: Compound concentration 10.0 uM
Sequence of D(2) dopamine receptor (Homo sapiens) (P14416 whole entry): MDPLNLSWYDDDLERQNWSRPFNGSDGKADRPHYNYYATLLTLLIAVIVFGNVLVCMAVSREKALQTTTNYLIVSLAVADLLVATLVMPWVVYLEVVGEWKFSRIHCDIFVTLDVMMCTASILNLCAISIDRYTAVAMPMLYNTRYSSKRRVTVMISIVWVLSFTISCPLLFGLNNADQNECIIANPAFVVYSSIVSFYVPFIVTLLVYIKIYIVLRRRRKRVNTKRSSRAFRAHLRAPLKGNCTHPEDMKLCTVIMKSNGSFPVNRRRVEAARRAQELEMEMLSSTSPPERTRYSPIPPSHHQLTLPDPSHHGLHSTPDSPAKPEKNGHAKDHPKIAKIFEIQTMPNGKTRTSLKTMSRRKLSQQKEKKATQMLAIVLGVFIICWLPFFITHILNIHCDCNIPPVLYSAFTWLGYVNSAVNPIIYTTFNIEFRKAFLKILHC

[32] = target: Glucocorticoid receptor (Homo sapiens) (UniProt P04150); experiment: GR (h) CEREP ligand profiling; conditions: filed as agonist, Compound concentration 10.0 uM

CNC(=O)Nc1ccc2c(c1)[C@@]1(CC2)OC(=O)N(CC(=O)N(Cc2ccc(F)cc2)[C@@H](C)C(F)(F)F)C1=O [A-486]
inactive: residual activity [1] 78% | residual activity [2] 90% | residual activity [3] 100% | inhibition [4] 7% | inhibition [5] 3.15% | residual activity [6] 85% | residual activity [7] 98% | residual activity [8] 60% | residual activity [9] 100% | residual activity [10] 87% | inhibition [11] 7% | residual activity [12] 83% | residual activity [13] 100% | residual activity [14] 100% | residual activity [15] 89% | residual activity [16] 67% | residual activity [17] 100% | residual activity [18] 100% | residual activity [19] 94% | residual activity [20] 63% | inhibition [21] 4% | residual activity [22] 87% | residual activity [23] 100% | residual activity [24] 100% | residual activity [25] 84% | residual activity [26] 85% | residual activity [27] 94% | residual activity [28] 88% | residual activity [29] 100% | residual activity [30] 100% | inhibition [31] -8.75% | inhibition [32] 16%

CNC(=O)Nc1ccc2c(c1)CC[C@@]21OC(=O)N(CC(=O)N(Cc2ccc(F)cc2)[C@@H](C)C(F)(F)F)C1=O [A-485]
inactive: residual activity [1] 94% | residual activity [2] 100% | residual activity [3] 96% | inhibition [4] 12% | inhibition [5] -0.28% | residual activity [6] 88% | residual activity [7] 99% | residual activity [8] 69% | residual activity [9] 76% | residual activity [10] 100% | inhibition [11] -3% | residual activity [12] 90% | residual activity [13] 90% | residual activity [14] 95% | residual activity [15] 84% | residual activity [16] 90% | residual activity [17] 82% | residual activity [18] 73% | residual activity [19] 100% | residual activity [20] 83% | inhibition [21] 0% | residual activity [22] 90% | residual activity [23] 100% | residual activity [24] 88% | residual activity [25] 82% | residual activity [26] 94% | residual activity [27] 96% | residual activity [28] 72% | residual activity [29] 86% | residual activity [30] 88% | inhibition [31] 15.5% | inhibition [32] 13%
